Patent publication US20040147595A1, “Biofilm degrading or sloughing compositions and methods” (priority 2001, published 2004)

What was measured:
E. coli MT102 = assay: Growth of E. coli MT102; assay type: cell-based, Escherichia coli; settings: data not shown
Experimental: Effect of the furanone in a heterologous background. The direct regulation exerted by the las regulon on lasB expression is well described by numerous studies (Gambello & Iglewski, 1991: Pearson et al., 1994; Pearson et al., 1997). Regulatory complexity is added by the observation that the las quorum sensing circuit itself is subject to global regulators (Albus et al., 1997; Whiteley et al., 2000) and that lasB expression is also controlled by other regulators than LasR (Brumlik & Storey, 1992; Pesci et al., 1999; Schictman et al., 1995). It was, therefore, important to rule out that QSI effect, observed is not caused by furanone interaction with high levels of control. Since there is no AHL-based quorum sensing system present in Escherichia coli (Williams et al., 2000), this bacterium provides an unbiased and well-defined genetic background for studying the direct effects of the furanone on the P. aeruginosa las quorum sensing system. We repeated the above-described experiments using E. coli MT102 as a heterologous host for the reporter system. […] This is likely to be attributed to the increased copy number of the reporter plasmid.

[1] = tested on: las quorum sensing system (lasB-gfp(ASV) expression); assay: AHL and furanone bioassay, PlasB-gfp(ASV) Plac-lasR reporter in planktonic PAO-JP2; assay type: cell-based, Pseudomonas aeruginosa
Experimental: AHL and furanone bioassay. Strains were grown exponentially in LB or ABt medium supplemented with 0.5% glucose at 30° C., shading at 250 rpm. At an optical density of approximately 0.8. the cultures were diluted and split into subcultures in glass culture flasks. AHLs and furanone 56 were added to appropriate concentrations and the cultures were further incubated at 30° C. under vigorous shaking. Culture samples were retrieved at various time intervals and green fluorescence was measured with a fluorometer (model RF-1501, Shimadzu, Tokyo, Japan) set at an excitation wavelength of 475 nm and emission wavelength of 515 nm. Relative fluorescence was calculated as green fluorescence normalized to 1 ml culture divided by the optical density (OD600 nm.
Initially, the lasB-gfp(ASV) translational fusion (OdDHL sensor) was thoroughly characterized with respect to its sensitivity and specificity. A culture of E. coli hosting the pMHLAS monitor plasmid was diluted and spilt into several subcultures which were then supplemented with AHLs at concentrations ranging from 0 to 1000 nM. […] When the pMHLAS based reporter system was hosted by PAO-JP2. the OdDHL concentration required for half-maximal activation of the lasB-gfp(ASV) fusion was 8 nM (data not shown). In single copy on the chromosome of PAO-JP2, the OdDHL concentration on required for half-maximal activation of lasB expression was approximately 250 nM (FIG. 2b). Green fluorescent cells were visible by epifluorescence microscopy at a minimal OdDHL concentration of 50 nM (FIG. 2c).
Noteworthy, the inhibitory effect of furanone 56 was relieved at increased concentrations of OdDHL.

[2] = tested on: OHHL induced LuxR dependent expression of GFP; assay: Quantitative furanone inhibition of the LuxR-PluxI-gfp(ASV) quorum sensor in E. coli MT102 (pJBA89); assay type: cell-based, Escherichia coli; settings: gradient of furanone concentration lowering RFU to 40% versus OHHL concentration (5-100 nM)
Text: To analyse the AHL antagonist activity of the halogenated furanones we tested the compounds for their ability to inhibit 3oxo-C6-HSL (OHHL) induced LuxR dependent expression of green fluorescent protein (GFP) from a Pgfp(ASV) fusion in the AHL monitor strain E. coli MT102 harbouring pJBA89 (Andersen et al., 2001).
The medium used is minimal ABT containing 0.5% glucose and 0.5% Casamino Acids. In growing cultures of the AHL monitor strain E. coli Mt102 (pJBA89) encoding […] and a P-gfp(ASV) fusion, GFP(ASV) is produced immediately upon OHHL addition specifically from the LuxR controlled P-gfp(ASV) fusion gene. The sensitivity is high (responsive to as little as 3 nm OHHL) and due to the instability built into the GFP (ASV) variant there is no background production of green fluoroscence (Andersen et al., 2001). GFP expression from the AHL monitor strain E. coli MT102 (pJBA89) and the control strain MT102 harbouring the lacl^q, Plas-gfp(ASV) IPTG inducible expression system pMH197 was quantified in the following way. Overnight cultures were diluted four fold in fresh medium and incubated for one hour at 30° C. while OHHL and furanone compounds in the required concentrations were mixed in the wells of microtiter dishes. […] When absolute values were required, green fluoroscence was measured on a fluorometer (model RF-1501; Shimadzu, Tokyo, Japan) act at an excitation wavelength of 475 nm and emission detection at 515 nm. To establish a correlation between the colour code of the ARGUS-50 captured images and green fluorescence, both colour and relative fluorescence units (RFU), were determined for a dilution series of an E. coli MT102 (pJBA89) culture which had been incubated with […]. […]
From the second plot, the furanone concentration reducing the relative activity to 40% (ID60) is determined for each OHHL concentration. […]
To enable easy comparison of the strength of the furanones, an inhibition index (IIX40) is calculated for each furanone compound. […]

Compound: O=C1C=C/C(=C/Br)O1 [furanone 56]
- effect on growth (E. coli MT102): no effect on growth
- effect on lasB-gfp(ASV) expression ([1]; 1.25 μ/ml (7.1 μM) furanone, range of OdDHL concentrations): inhibited lasB-gfp(ASV) expression at a wide range of OdDHL concentrations
- complete inhibition of lasB-gfp(ASV) expression ([1]; any of the tested concentrations): complete inhibition was not attained at any of the tested concentrations
- inhibition index (IIX40) [2]: 0.51 mole of furanone per mmole of
